As a reminder, the IC50 is the concentration at which inhibition is half-maximal. A lower IC50 goes with greater potency. For orientation: pKB means the KB on a negative log10 scale, so that one unit is a factor of ten. What is called Ki is a dissociation constant, usually derived from enzyme kinetics or from competition with a known ligand.

For assay [1], the target named is T1, Cysteinyl leukotriene receptor 1 (Cavia porcellus, UniProt Q2NNR5).
T1 sequence (Q2NNR5 whole entry): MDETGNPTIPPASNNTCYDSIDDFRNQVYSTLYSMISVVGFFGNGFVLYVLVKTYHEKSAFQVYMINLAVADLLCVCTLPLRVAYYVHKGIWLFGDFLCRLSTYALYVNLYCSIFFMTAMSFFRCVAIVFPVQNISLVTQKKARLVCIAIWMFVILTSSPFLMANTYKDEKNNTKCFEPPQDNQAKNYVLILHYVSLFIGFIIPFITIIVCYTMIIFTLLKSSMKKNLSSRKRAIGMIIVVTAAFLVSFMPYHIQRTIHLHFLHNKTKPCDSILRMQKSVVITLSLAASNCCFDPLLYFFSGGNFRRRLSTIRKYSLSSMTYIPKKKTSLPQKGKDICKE
Nature of the assay: Compound was evaluated for its ability to displace [3H]LTD4 from Cysteinyl leukotriene D4 receptor in guinea pig lung membranes. Type of assay: cell membranes, Membrane.

For assay [2], the species on record is Cavia porcellus. Nature of the assay: (§1) Antagonistic activity against LTD4 induced contraction in guinea pig trachea. Format: functional.
The species named for assay [3] is Cavia porcellus. The description is as §1. Type of assay: functional, organism-based. Particulars: for Kb: read-out: pA2 (converted).
The species named for the next assay is Homo sapiens. The assay is described as follows: Antagonistic activity against LTD4 induced contraction in human bronchus. Format: functional.
Assay [4] concerns the target T1, Cysteinyl leukotriene receptor 1. The assay is described as follows: Compound was evaluated for its ability to displace [3H]LTD4 from LTD4 receptor in guinea pig lung membranes. Format: cell membranes, Membrane.
The species entered for assay [5] is Cavia porcellus. Nature of the assay: Antagonistic activity against LTD4 induced contraction in guinea pig lung parenchymal strips. Particulars: Lung parenchyma, read-out: pA2 (converted). Format: functional.
The species entered for assay [6] is Cavia porcellus. The assay is described as follows: Antagonistic activity against LTD4 induced contraction in guinea pig ileum. Format: functional.

For the compound `CCCCC/C=C/C\C=C/C=C/C=C/[C@@H](Sc1ccc2c(=O)cc(C(=O)O)oc2c1)[C@H](O)CCCC(=O)O`, in assay [1], the concentration for half-maximal inhibition (IC50) turned out to be 100 nM.

In turn, `O=C(Nc1cccc2c(=O)cc(-c3nnn[nH]3)oc12)c1ccc(OCCCCc2ccccc2)cc1` registered a pKB in the assay listed under Cavia porcellus [2] of 7.5.

In the assay listed under Cavia porcellus [2], `O=C(O)CCS[C@@H](CC(=O)O)c1ccccc1CCCCCCCCc1ccccc1` came in with a negative-log KB (pKB) of 7.6. The compound further registered an inhibition constant Ki in assay [1] of 60 nM.

Take `CCCCCCCCC/C=C\C=C\[C@@H](SCCC(=O)O)[C@@H](O)c1cccc(-c2nnn[nH]2)c1`: the Kb in the assay listed under Cavia porcellus [3] was 7.94 nM.

For the compound `CCC(CC)(CC(=O)Nc1cccc(/C=C/c2nc(C3CCC3)cs2)c1)C(=O)O`, in the assay listed under Homo sapiens, the pKB is reported as 9.3.

Consider `CCCc1c(OCCCOc2cc(NC(=O)c3nn[nH]n3)c(C)cc2Cl)ccc(C(C)=O)c1O` [CGP-35949], for which the Kb in the assay filed under Cavia porcellus [3] was 39.8 nM.

For `CCCc1c(OCC(O)COc2ccc3c(=O)cc(C(=O)O)oc3c2CCC)ccc(C(C)=O)c1O` (stereo unspecified) [FPL-55712], the Kb in the assay filed under Cavia porcellus [3] is 200 nM.

As for `COc1cc(C(=O)NS(=O)(=O)c2ccccc2)ccc1Cn1ncc2ccc(NC(=O)OC3CCCC3)cc21` [ICI-198615], the Kb in the assay filed under Cavia porcellus [3] is 0.0794 nM. The inhibition constant (Ki) in assay [4] is 0.3 nM.

Regarding `CCCc1c(OCCCS(=O)(=O)c2ccc(C(=O)CCC(=O)O)cc2)ccc(C(C)=O)c1O` [L-648051], in the assay filed under Cavia porcellus [3], the Kb is 50.1 nM.

As for `CCCc1c(OCCCSc2ccc([C@@H](O)[C@H](C)CC(=O)O)cc2)ccc(C(C)=O)c1O` [L-649923], the Kb in the assay filed under Cavia porcellus [3] is 63.1 nM. In assay [4], this compound came in with an inhibitory constant (Ki) of 400 nM.

The compound `CCCc1c(COc2ccc(Cc3nnn[nH]3)cc2)ccc(C(C)=O)c1O` [LY-163443] gave a pKB in the assay filed under Cavia porcellus [2] of 7.5.

In turn, `CCCc1c(OCCCCc2nnn(CCCCc3nnn[nH]3)n2)ccc(C(C)=O)c1O` [LY-203647] gave a pKB in the assay listed under Cavia porcellus [2] of 6.4.

In the assay listed under Cavia porcellus [2], `CN(C)C(=O)CCSC(SCCC(=O)O)c1cccc(/C=C/c2ccc3ccc(Cl)cc3n2)c1` (stereo unspecified) [MK-571] yielded a pKB of 9.3. The Ki in assay [1] was 0.2 nM.

As to `O=C(O)CCS[C@H](c1ccccc1CCCCCCCCc1ccccc1)[C@@H](O)C(=O)O` [POBILUKAST], in the assay listed under Cavia porcellus [3], the Kb is 2.51 nM.

Regarding `c1ccc(Cc2nn[nH]n2)c(COc2ccc(OCc3ccc4ccccc4n3)cc2)c1` [RG-12525], the Kb in the assay listed under Cavia porcellus [5] was 3.98 nM.

In the case of `O=S(=O)(Nc1cccc(OCc2ccc3ccccc3n2)c1)C(F)(F)F` [RITOLUKAST], in the assay filed under Cavia porcellus [2], the pKB stood at 7.8.

In the case of `CCCc1c(OCCCOc2ccc3c(c2CCC)OC(C)(CCC(=O)O)CC3=O)ccc(C(C)=O)c1O` (stereo unspecified) [SC-39070], the pKB in the assay filed under Cavia porcellus [6] is reported as 8.2.

`O=C(O)c1ccccc1Nc1cccc(OCc2ccc3ccccc3n2)c1` [SR-2640] had a negative logarithm of the KB (pKB) in the assay listed under Cavia porcellus [2] of 8.7.

As to `CCCc1c(OCCCCc2nnn[nH]2)ccc(C(C)=O)c1O` [TOMELUKAST], the pKB in the assay listed under Cavia porcellus [2] was 6.9. In assay [4], this compound came in with an inhibition constant (Ki) of […].

In the case of `CCCc1c(OCCCSc2nnc(SCC(=O)O)s2)ccc(C(C)=O)c1O` [YM-16638], the IC50 in the assay filed under Cavia porcellus [3] amounted to 160 nM.

The compound `COc1cc(C(=O)NS(=O)(=O)c2ccccc2C)ccc1Cc1cn(C)c2ccc(NC(=O)OC3CCCC3)cc12` [ZAFIRLUKAST] came in with a pKB in the assay filed under Cavia porcellus [2] of 9.5.
